From patent US11352350B2, “IRAK degraders and uses thereof” (Kymera Therapeutics, Inc., priority 2018, dated 2022)
Like-named read-outs stand apart in the source and are kept apart here.

Key:
[1] = target: IRAK4 (Homo sapiens (Human), UniProt Q9NWZ3); assay: IRAK4 MSD degradation in OCI-LY10; format: cell-based
Summary of the method: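 OCI-LY10 cells treated with 8-point 1:3 dilutions (top 1 to 10 μM final) for 4 to 24 h at 37° C. Lysate IRAK4 measured by MSD sandwich immunoassay (2H9 capture, Y279 detection, SULFO-TAG anti-rabbit). DC50 from three-parameter logistic fit.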

[2] = tested on: OCI-LY10; assay: CTG Cell Viability Assay - OCI-LY10; format: cell-based, human; settings: OCI-LY10, 4 days, read-out: CTG Cell Viability Assay - OCI-LY10: Average external-IC50
Summary of the method: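 OCI-LY10 cells exposed to 9-dose, 1:3 dilutions from 10 μM top (0.2% DMSO) for 4 days at 37° C, 5% CO2. Viability by CellTiter-Glo luminescence; IC50 from three-parameter logistic fit.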

[3] = OCI-LY10, 4 hrs, MSD, read-out: IRAK4 MSD degradation in OCI-LY10 at 4 hrs: Average external-Abs DC50
[4] = OCI-LY10, 24 hrs, MSD, read-out: IRAK4 MSD degradation in OCI-LY10 at 24 hrs: Average external-Abs DC50

Chain of IRAK4 (Q9NWZ3 whole entry): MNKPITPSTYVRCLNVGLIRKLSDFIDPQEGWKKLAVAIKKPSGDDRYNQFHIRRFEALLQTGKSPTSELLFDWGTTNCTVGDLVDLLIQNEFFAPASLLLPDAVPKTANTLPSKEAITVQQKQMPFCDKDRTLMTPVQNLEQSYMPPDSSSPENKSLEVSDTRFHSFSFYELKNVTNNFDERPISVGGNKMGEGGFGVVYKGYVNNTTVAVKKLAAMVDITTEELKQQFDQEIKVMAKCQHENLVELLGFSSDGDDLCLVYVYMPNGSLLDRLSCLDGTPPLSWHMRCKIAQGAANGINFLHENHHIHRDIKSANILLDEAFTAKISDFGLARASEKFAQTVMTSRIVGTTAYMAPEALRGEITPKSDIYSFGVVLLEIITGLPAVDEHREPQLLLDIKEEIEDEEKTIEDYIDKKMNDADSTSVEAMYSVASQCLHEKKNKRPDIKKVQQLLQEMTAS

Compound	DC50 [1, 3]	IC50 ([2]; Homo sapiens, OCI-Ly10, 96 h)	DC50 [1, 4]	IC50 [2]	DC50 ([1]; OCI-LY10, 4 hrs, read-out: IRAK4 MSD degradation in OCI-LY10 at 4 hrs: DC50)	DC50 ([1]; OCI-LY10, 24 hrs, read-out: IRAK4 MSD degradation in OCI-LY10 at 24 hrs: DC50)
CN(C[C@H]1CC[C@H](n2cc(NC(=O)c3coc(-c4ccnc(NCC5CC5)c4)n3)c(C(F)F)n2)CC1)C1CCN(Cc2cccc3c2n(C)c(=O)n3[C@@H]2CCC(=O)NC2=O)CC1 [I-309, 2-(2-((cyclopropylmethyl)amino)pyridin-4-yl)-N-(3-(difluoromethyl)-1-((1R,4r)-4-(((1-((1-((R)-2,6-dioxopiperidin-3-yl)-3-methyl-2-oxo-2,3-dihydro-1H-benzo [d]imidazol-4-yl)methyl)piperidin-4-yl)(methyl)amino)methyl)cyclohexyl)-1H-pyrazol-4-yl)oxazole-4-carboxamide]	10 to 100 nM	< 50 nM	–	–	–	–
Cc1ccc(-n2nc(C3CCN(CCCCCOCCCc4cccc5c4n(C)c(=O)n5C4CCC(=O)NC4=O)CC3)cc2NC(=O)c2cnn3cccnc23)nc1 (stereo not drawn) [I-272]	> 1000 nM	> 1000 nM	> 1000 nM	–	–	–
COc1cc(C(=O)NCCCCCCN(C)C(=O)[C@H]2CC[C@H](n3cc(NC(=O)c4coc(-c5ccnc(NCC6CC6)c5)n4)c(C(F)F)n3)CC2)ccc1NC(=O)[C@@H]1N[C@@H](CC(C)(C)C)[C@](C#N)(c2ccc(Cl)cc2F)[C@H]1c1cccc(Cl)c1F [I-143]	> 1000 nM	–	> 1000 nM	> 1000 nM	–	–
Cn1c(=O)n(C2CCC(=O)NC2=O)c2cccc(C3CCN(C[C@H]4CC[C@H](n5cc(NC(=O)c6cnn7ccc(N8CCOCC8)nc67)c(C(F)F)n5)CC4)CC3)c21 (stereo partly drawn) [I-199]	100 to 1000 nM	> 1000 nM	–	–	–	–
CC[C@@H]1[C@H](F)C(=O)N[C@@H]1COc1ncc(C#C[C@H]2CC[C@H](CN3CCC(OCCNc4cccc5c4C(=O)N(C4CCC(=O)NC4=O)C5=O)CC3)CC2)c2cc(C(N)=O)c(OC)cc12 (stereo partly drawn) [I-386]	100 to 1000 nM	< 50 nM	10 to 100 nM	–	–	–
CN(CCCOCCCc1cccc2c1n(C)c(=O)n2[C@@H]1CCC(=O)NC1=O)C[C@H]1CC[C@H](n2cc(NC(=O)c3coc(-c4ccnc(NCC5CC5)c4)n3)c(C(F)F)n2)CC1 (single isomer, unassigned) [I-307]	10 to 100 nM	> 1000 nM	–	–	–	–
Cn1c(=O)n(C2CCC(=O)NC2=O)c2cccc(CCCOC3CCN(C(=O)[C@H]4CC[C@H](n5cc(NC(=O)c6cnn7ccc(N8CCNCC8)nc67)c(C(F)F)n5)CC4)CC3)c21 (stereo partly drawn) [I-136]	< 10 nM	> 1000 nM	–	–	–	–
C[C@@H]1CN(c2ccn3ncc(C(=O)Nc4cn([C@H]5CC[C@H](CN6CCC(OCCCc7cccc8c7n(C)c(=O)n8C7CCC(=O)NC7=O)CC6)CC5)nc4C(F)F)c3n2)C[C@@H](C)O1 (stereo partly drawn) [I-276]	< 10 nM	> 1000 nM	–	–	–	–
CN(CCCOCCCNc1cccc2c1C(=O)N(C1CCC(=O)NC1=O)C2=O)C[C@H]1CC[C@H](n2cc(NC(=O)c3coc(-c4ccnc(N[C@@H]5CCCC[C@@H]5O)c4)n3)c(C(F)F)n2)CC1 (stereo partly drawn) [I-399]	10 to 100 nM	< 50 nM	< 10 nM	–	–	–
CN(CCCOCCCNC(=O)c1ccc(CNCc2ccc(-c3ccc4c(cnn4CC4CC4)c3)cc2)cc1)C(=O)[C@H]1CC[C@H](n2cc(NC(=O)c3coc(-c4ccnc(NCC5CC5)c4)n3)c(C(F)F)n2)CC1 [I-132]	> 1000 nM	> 1000 nM	> 1000 nM	–	–	–
Cn1c(=O)n(C2CCC(=O)NC2=O)c2cccc(CCCOCC3CCN(C[C@H]4CC[C@H](n5cc(NC(=O)c6coc(-c7ccnc(NCC8CC8)c7)n6)c(C(F)F)n5)CC4)CC3)c21 (stereo partly drawn) [I-120]	< 10 nM	> 1000 nM	–	–	–	–
CC(C)[C@@H](CS(=O)(=O)C(C)C)N1C(=O)[C@@](C)(CC(=O)N2CCC(CCN(C)C[C@H]3CC[C@H](n4cc(NC(=O)c5coc(-c6ccnc(NCC7CC7)c6)n5)c(C(F)F)n4)CC3)CC2)C[C@H](c2cccc(Cl)c2)[C@H]1c1ccc(Cl)cc1 [I-147]	> 1000 nM	> 1000 nM	> 1000 nM	–	–	–
CN1C(=O)C(C2CCC(=O)NC2=O)c2cccc(CCCOC3CCN(C[C@H]4CC[C@H](n5cc(NC(=O)c6cnn7ccc(N8CC(O)C8)nc67)c(C(F)F)n5)CC4)CC3)c21 (stereo partly drawn) [I-284]	< 10 nM	> 1000 nM	–	–	–	–
NC[C@H]1CC[C@H](n2cc(NC(=O)c3coc(-c4ccnc(NCC5CC5)c4)n3)c(C(F)F)n2)CC1 [I-312, N-[1-[4-(aminomethyl)cyclohexyl]-3-(difluoromethyl)pyrazol-4-yl]-2-[2-(cyclopropylmethylamino)-4-pyridyl]oxazole-4-carboxamide]	> 1000 nM	> 1000 nM	> 1000 nM	–	–	–
Cn1c(=O)n(C2CCC(=O)NC2=O)c2ccc(CN3CCN(CCO[C@H]4C[C@H](N(C)C[C@H]5CC[C@H](n6cc(NC(=O)c7coc(-c8ccnc(NCC9CC9)c8)n7)c(C(F)F)n6)CC5)C4)CC3)cc21 (stereo partly drawn) [I-252]	< 10 nM	100 to 500 nM	–	–	–	–
CN(CCc1ccc(CCNc2cccc3c2C(=O)N(C2CCC(=O)NC2=O)C3=O)cc1)C[C@H]1CC[C@H](n2cc(NC(=O)c3cnn4ccc(N5C[C@H]6C[C@@H]5CO6)nc34)c(C(F)F)n2)CC1 (stereo partly drawn) [I-336]	100 to 1000 nM	50 to 100 nM	10 to 100 nM	–	–	–
CC[C@@H]1[C@H](F)C(=O)N[C@@H]1COc1ncc(C#C[C@H]2CC[C@H](CN3CCC(OCCCc4ccc5c(c4)n(C)c(=O)n5C4CCC(=O)NC4=O)CC3)CC2)c2cc(C(N)=O)c(OC)cc12 (stereo partly drawn) [I-187]	> 1000 nM	> 1000 nM	< 10 nM	–	–	–
CN(CCCN1CCO[C@@H](CNc2cccc3c2C(=O)N(C2CCC(=O)NC2=O)C3=O)C1)C[C@H]1CC[C@H](n2cc(NC(=O)c3cnn4ccc(N5C[C@H]6C[C@@H]5CO6)nc34)c(C(F)F)n2)CC1 (stereo partly drawn) [I-347]	100 to 1000 nM	< 50 nM	10 to 100 nM	–	–	–
O=C1CCC(N2C(=O)c3cccc(NCCc4ccc(C5CCN(C[C@H]6CC[C@H](n7cc(NC(=O)c8cnn9ccc(N%10C[C@H]%11C[C@@H]%10CO%11)nc89)c(C(F)F)n7)CC6)CC5)cc4)c3C2=O)C(=O)N1 (stereo partly drawn) [I-362]	100 to 1000 nM	500 to 1000 nM	10 to 100 nM	–	–	–
Cn1c(=O)n(C2CCC(=O)NC2=O)c2cccc(CCCOC3CCN(C[C@H]4CC[C@H](n5cc(NC(=O)c6cnn7ccc(NCC8CC8)nc67)c(C(F)F)n5)CC4)CC3)c21 (stereo partly drawn) [I-156]	10 to 100 nM	> 1000 nM	–	–	–	–
CN(CCC1CCN(Cc2cccc3c2n(C)c(=O)n3C2CCC(=O)NC2=O)CC1)C[C@H]1CC[C@H](n2cc(NC(=O)c3cnn4ccc(N5C[C@H](N)CC(F)(F)C5)nc34)c(C(F)F)n2)CC1 (stereo partly drawn) [I-155]	10 to 100 nM	> 1000 nM	–	–	–	–
CN(CCOCCNCc1cccc2c1n(C)c(=O)n2C1CCC(=O)NC1=O)C[C@H]1CC[C@H](n2cc(NC(=O)c3coc(-c4ccnc(NCC5CC5)c4)n3)c(C(F)F)n2)CC1 (stereo partly drawn) [I-237]	< 10 nM	> 1000 nM	–	–	–	–
Cn1c(=O)n(C2CCC(=O)NC2=O)c2ccc(CCCCOCCCCNCC(=O)N3CCN([C@H]4CC[C@H](Nc5ncnc6[nH]cc(C7CCOCC7)c56)CC4)CC3)cc21 (stereo partly drawn) [I-23]	10 to 100 nM	50 to 100 nM	< 10 nM	–	–	–
O=C1CCC(N2C(=O)c3cccc(OCCCOC4CCN(C[C@H]5CC[C@H](n6cc(NC(=O)c7cnn8ccc(N9CCOCC9)nc78)c(C(F)F)n6)CC5)CC4)c3C2=O)C(=O)N1 (stereo partly drawn) [I-209]	10 to 100 nM	> 1000 nM	< 10 nM	–	–	–
O=C1CCC(N2C(=O)c3cccc(NCC(=O)N4CC5(CCN(C[C@H]6CC[C@H](n7cc(NC(=O)c8cnn9ccc(N%10CCOCC%10)nc89)c(C(F)F)n7)CC6)CC5)C4)c3C2=O)C(=O)N1 (stereo partly drawn) [I-443]	–	< 50 nM	–	–	< 10 nM	< 10 nM
Cn1c(=O)n(C2CCC(=O)NC2=O)c2cccc(CCCOC3CCN(C[C@H]4CC[C@H](n5cc(NC(=O)c6cnn7ccc(N[C@@H]8CCCC[C@H]8O)nc67)c(C(F)F)n5)CC4)CC3)c21 (stereo partly drawn) [I-293]	10 to 100 nM	> 1000 nM	–	–	–	–
Cn1c(=O)n(C2CCC(=O)NC2=O)c2ccc(CCCOCCOCC(F)CNC(=O)c3cnc(Nc4ccc5cnccc5n4)cc3NC3CC3)cc21 (stereo not drawn) [I-138]	> 1000 nM	> 1000 nM	> 1000 nM	–	–	–
CN(CCN1CCO[C@@H](CCNc2cccc3c2C(=O)N(C2CCC(=O)NC2=O)C3=O)C1)C[C@H]1CC[C@H](n2cc(NC(=O)c3coc(-c4ccnc(NCC5CC5)c4)n3)c(C(F)F)n2)CC1 (stereo partly drawn) [I-339]	10 to 100 nM	50 to 100 nM	10 to 100 nM	–	–	–
CN(CCN1CCO[C@H](CCNc2cccc3c2C(=O)N(C2CCC(=O)NC2=O)C3=O)C1)C[C@H]1CC[C@H](n2cc(NC(=O)c3cnn4ccc(N5C[C@H]6C[C@@H]5CO6)nc34)c(C(F)F)n2)CC1 (stereo partly drawn) [I-340]	100 to 1000 nM	100 to 500 nM	10 to 100 nM	–	–	–
